Reference: ChEMBL document CHEMBL1240371, “Randomized, double-blind study of the safety, tolerability, and efficacy of tafenoquine versus mefloquine for malaria prophylaxis in nonimmune subjects” (Antimicrob Agents Chemother, 2010)

Tests used:
Details in all cases: in vivo, po
Homo sapiens [1] = organism: Homo sapiens; experiment: Toxicity in […] assessed as incidence of fungal dermatitis at 250 mg, perorally for 3 days and weekly 250 mg, perorally maintenance dose for 26 +/- 4 weeks; format: organism-based
Homo sapiens [2] = organism: Homo sapiens; experiment: Toxicity in […] assessed as incidence of phayngitis at 250 mg, perorally for 3 days and weekly 250 mg, perorally maintenance dose for 26 +/- 4 weeks; format: organism-based
Homo sapiens [3] = organism: Homo sapiens; experiment: Toxicity in […] assessed as incidence of upper respiratory tract infection at 250 mg, perorally for 3 days and weekly 250 mg, perorally maintenance dose for 26 +/- 4 weeks; format: organism-based
Homo sapiens [4] = organism: Homo sapiens; experiment: Toxicity in […] assessed as incidence of somnolence at 250 mg, perorally for 3 days and weekly 250 mg, perorally maintenance dose for 26 +/- 4 weeks; format: organism-based
Homo sapiens [5] = organism: Homo sapiens; experiment: Toxicity in […] assessed as incidence of dizziness at 250 mg, perorally for 3 days and weekly 250 mg, perorally maintenance dose for 26 +/- 4 weeks; format: organism-based
Homo sapiens [6] = organism: Homo sapiens; experiment: Toxicity in […] assessed as incidence of rash at 250 mg, perorally for 3 days and weekly 250 mg, perorally maintenance dose for 26 +/- 4 weeks; format: organism-based
Homo sapiens [7] = organism: Homo sapiens; experiment: Toxicity in […] assessed as incidence of diarrhea at 250 mg, perorally for 3 days and weekly 250 mg, perorally maintenance dose for 26 +/- 4 weeks; format: organism-based
Homo sapiens [8] = organism: Homo sapiens; experiment: Toxicity in […] assessed as incidence of back pain at 250 mg, perorally for 3 days and weekly 250 mg, perorally maintenance dose for 26 +/- 4 weeks; format: organism-based
Homo sapiens [9] = organism: Homo sapiens; experiment: Toxicity in […] assessed as incidence of abnormal coordination at 250 mg, perorally for 3 days and weekly 250 mg, perorally maintenance dose for 26 +/- 4 weeks; format: organism-based
Homo sapiens [10] = organism: Homo sapiens; experiment: Toxicity in […] assessed as incidence of increase in serum creatinine at 250 mg, perorally for 3 days and weekly 250 mg, perorally maintenance dose for 26 +/- 4 weeks; format: organism-based
Homo sapiens [11] = organism: Homo sapiens; experiment: Toxicity in […] assessed as incidence of abnormal retinal fluorescein at 250 mg, perorally for 3 days and weekly 250 mg, perorally maintenance dose for 26 +/- 4 weeks; format: organism-based
Homo sapiens [12] = organism: Homo sapiens; experiment: Toxicity in […] assessed as incidence of pigmentation of retinal epithelium at 250 mg, perorally for 3 days and weekly 250 mg, perorally maintenance dose for 26 +/- 4 weeks; format: organism-based
Homo sapiens [13] = organism: Homo sapiens; experiment: Toxicity in […] assessed as incidence of abnormal dreams at 250 mg, perorally for 3 days and weekly 250 mg, perorally maintenance dose for 26 +/- 4 weeks; format: organism-based
Homo sapiens [14] = organism: Homo sapiens; experiment: Toxicity in […] assessed as incidence of increase in bilirubin at 250 mg, perorally for 3 days and weekly 250 mg, perorally maintenance dose for 26 +/- 4 weeks; format: organism-based
Homo sapiens [15] = organism: Homo sapiens; experiment: Toxicity in […] assessed as incidence of musculoskeletal injury at 250 mg, perorally for 3 days and weekly 250 mg, perorally maintenance dose for 26 +/- 4 weeks; format: organism-based
Homo sapiens [16] = organism: Homo sapiens; experiment: Toxicity in […] assessed as incidence of vertigo at 250 mg, perorally for 3 days and weekly 250 mg, perorally maintenance dose for 26 +/- 4 weeks; format: organism-based
Homo sapiens [17] = organism: Homo sapiens; experiment: Toxicity in […] assessed as incidence of gastroentertis at 250 mg, perorally for 3 days and weekly 250 mg, perorally maintenance dose for 26 +/- 4 weeks; format: organism-based
Homo sapiens [18] = organism: Homo sapiens; experiment: Toxicity in […] assessed as incidence of nausea at 250 mg, perorally for 3 days and weekly 250 mg, perorally maintenance dose for 26 +/- 4 weeks; format: organism-based
Homo sapiens [19] = organism: Homo sapiens; experiment: Toxicity in […] assessed as incidence of depression at 250 mg, perorally for 3 days and weekly 250 mg, perorally maintenance dose for 26 +/- 4 weeks; format: organism-based
Homo sapiens [20] = organism: Homo sapiens; experiment: Toxicity in […] assessed as incidence of headache at 250 mg, perorally for 3 days and weekly 250 mg, perorally maintenance dose for 26 +/- 4 weeks; format: organism-based
Homo sapiens [21] = organism: Homo sapiens; experiment: Toxicity in […] assessed as incidence of arthralgia at 250 mg, perorally for 3 days and weekly 250 mg, perorally maintenance dose for 26 +/- 4 weeks; format: organism-based
Homo sapiens [22] = organism: Homo sapiens; experiment: Toxicity in […] assessed as incidence of vomiting at 250 mg, perorally for 3 days and weekly 250 mg, perorally maintenance dose for 26 +/- 4 weeks; format: organism-based
Homo sapiens [23] = organism: Homo sapiens; experiment: Toxicity in […] assessed as incidence of insomnia at 250 mg, perorally for 3 days and weekly 250 mg, perorally maintenance dose for 26 +/- 4 weeks; format: organism-based
Homo sapiens [24] = organism: Homo sapiens; experiment: Toxicity in […] assessed as incidence of viral infection at 250 mg, perorally for 3 days and weekly 250 mg, perorally maintenance dose for 26 +/- 4 weeks; format: organism-based
Homo sapiens [25] = organism: Homo sapiens; experiment: Toxicity in […] assessed as incidence of abdominal pain at 250 mg, perorally for 3 days and weekly 250 mg, perorally maintenance dose for 26 +/- 4 weeks; format: organism-based, Abdomen

What does the source list for `OC(c1cc(C(F)(F)F)nc2c(C(F)(F)F)cccc12)C1CCCCN1` (stereo not given) [MEFLOQUINE]?
Activity (Homo sapiens [1]): 8%; Activity (Homo sapiens [2]): 3%; Activity (Homo sapiens [3]): 32%; Activity (Homo sapiens [4]): 6%; Activity (Homo sapiens [5]): 2%; Activity (Homo sapiens [6]): 21%; Activity (Homo sapiens [7]): 30%; Activity (Homo sapiens [8]): 26%; Activity (Homo sapiens [9]): 1%; Activity (Homo sapiens [10]): 10%; Activity (Homo sapiens [11]): 100%; Activity (Homo sapiens [12]): 23.5%; Activity (Homo sapiens [13]): 2%; Activity (Homo sapiens [14]): 0.6%; Activity (Homo sapiens [15]): 49%; Activity (Homo sapiens [16]): 8%; Activity (Homo sapiens [17]): 51%; Activity (Homo sapiens [18]): 13%; Activity (Homo sapiens [19]): 1%; Activity (Homo sapiens [20]): 20%; Activity (Homo sapiens [21]): 18%; Activity (Homo sapiens [22]): 8%; Activity (Homo sapiens [23]): 3%; Activity (Homo sapiens [24]): 13%; Activity (Homo sapiens [25]): 13%
